According to patent US9926375B2, “Anti-endoglin antibodies and uses thereof” (Tracon Pharmaceuticals, Inc., priority 2014, dated 2018):

Experiments:
human CD105 = target: T1, human CD105 (Homo sapiens, UniProt P17813); test: Competition ELISA against biotinylated TRC205 antibody for binding to human CD105; conditions: biotinylated TRC205 55 ng/ml
T1 construct: purchased R&D Systems 1097-EN
T1 sequence (P17813 26-586 limits assumed): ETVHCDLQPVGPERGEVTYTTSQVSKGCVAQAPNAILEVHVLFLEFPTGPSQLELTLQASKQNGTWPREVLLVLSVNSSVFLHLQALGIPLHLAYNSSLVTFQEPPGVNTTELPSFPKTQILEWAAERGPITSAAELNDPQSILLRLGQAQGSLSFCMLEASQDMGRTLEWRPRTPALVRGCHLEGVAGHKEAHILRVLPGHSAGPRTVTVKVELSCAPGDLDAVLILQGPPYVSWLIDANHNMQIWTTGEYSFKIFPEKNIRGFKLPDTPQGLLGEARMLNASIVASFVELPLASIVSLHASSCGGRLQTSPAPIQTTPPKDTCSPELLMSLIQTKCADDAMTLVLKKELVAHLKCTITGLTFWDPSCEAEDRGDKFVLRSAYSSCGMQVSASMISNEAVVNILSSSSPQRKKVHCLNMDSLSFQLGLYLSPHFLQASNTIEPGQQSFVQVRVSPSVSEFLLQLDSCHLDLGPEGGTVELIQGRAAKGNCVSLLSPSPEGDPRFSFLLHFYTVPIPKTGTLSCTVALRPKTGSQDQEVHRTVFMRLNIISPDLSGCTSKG
Experimental: After washing three times with PBST, a three-fold dilution series of either human BMP9 (R&D Systems Cat. No. 3209-BP-010) (413 nM to 0.56 nM), or unlabelled TRC205 antibody (40 nM to 0.05 nM) or a single concentration of an irrelevant antibody (66 nM) was mixed with a fixed concentration of biotinylated TRC205 antibody (55 ng/ml) and added to the plate. Following incubation for 1 hour at room temperature, the plate was washed three times with PBST and binding of the biotinylated TRC205 antibody was detected using streptavidin-HRP (Sigma Cat. No. 55512) and TMB substrate (Sigma Cat. No. T0440). OD450 nm values were measured on a Dynex MRX TCII plate reader.

[1] = test system: BLM-induced pulmonary fibrosis model mice; test: Bleomycin-induced pulmonary fibrosis model; assay type: in vivo, mouse; conditions: vs isotype-control antibody group (isotype-control vs disease control group); day 21; Bonferroni, P<0.05
Experimental: Pathogen-free 7 weeks old female C57BL/6J mice were obtained from Japan SLC, Inc. (Japan). At day 0, 60 mice were induced to develop pulmonary fibrosis by a single intratracheal administration of bleomycin sulphate (BLM, Nippon Kayaku, Japan) in saline at a dose of 3 mg/kg, in a volume of 50 μL per animal using Microsprayer® (Penn-Century, USA).
BLM-induced pulmonary fibrosis model mice were randomized into 4 groups of 12 mice based on the body weight on the day before the start of treatment.
Group 3 (M1043 Antibody): Twelve BLM-induced pulmonary fibrosis model mice were intravenously administered vehicle supplemented with M1043 at a dose of 10 mg/kg twice weekly at day 7, 10, 14 and 17.
Group 4 (TRC105 human/mouse chimeric antibody): Twelve BLM-induced pulmonary fibrosis model mice were intravenously administered vehicle supplemented with TRC105 at a dose of 10 mg/kg twice weekly at day 7, 10, 14 and 17.
Group 5 (BIBF1120 inhibitor for Idiopathic Pulmonary Fibrosis—positive control, Boehringer Ingelheim): Twelve BLM-induced pulmonary fibrosis model mice were orally administered 1% CMC supplemented with BIBF1120 at a dose of 100 mg/kg once daily from day 7 to 21. […]
Histological analysis of lung sections was conducted by practitioners who are not aware of the Group identity. Masson's Trichrome staining is conducted and an Ashcroft Score estimate was determined. […]

NASH mice = test: Murine model of non-alcoholic steatohepatitis (NASH; STZ and high fat diet); assay type: in vivo, mouse
Description: The purpose of this study was to examine the protective effects of endoglin antibodies on a murine model of NASH.
NASH was established by a single subcutaneous injection of STZ (Sigma, USA) after birth and feeding with a high fat diet (HFD; CLEA Japan, Japan) ad libitum after 4 weeks of age (day 28±2).
Randomization of mice into 6 groups of 10 mice was done at 9 weeks of age (day 63±2), the day before the start of treatment.
Group 3 (Positive control; Temlisartan Group): Ten NASH mice were be orally administered pure water supplemented with telmisartan at a dose of 10 mg/kg once daily from day 63 to 84.
Group 4 (Antibody M1043: M1043 Group): Ten NASH mice were intravenously administered vehicle supplemented with Antibody M1043 at a dose of 10 mg/kg twice weekly at day 63, 66, 70, 73, 77 and 80.
Group 5 (Antibody TRC105; TRC105 Group): Ten NASH mice were intravenously administered vehicle supplemented with Antibody TRC105 at a dose of 10 mg/kg twice weekly at day 63, 66, 70, 73, 77 and 80.
Group 6 (Antibody TRC205; TRC205 Group): Ten NASH mice were intravenously administered vehicle supplemented with Antibody TRC205 at a dose of 10 mg/kg twice weekly at days 63, 66, 70, 73, 77 and 80.
Mice in all groups were terminated for the following assays at 12 weeks of age.
H&E staining of liver tissue was conducted to estimate NAFLD Activity score.
Total NAS score represents the sum of scores for steatosis, lobular inflammation, and ballooning, and ranges from 0-8. Diagnosis of NASH (or, alternatively, fatty liver not diagnostic of NASH) should be made first, then NAS is used to grade activity. In the reference study, NAS scores of 0-2 occurred in cases largely considered not diagnostic of NASH, scores of 3-4 were evenly divided among those considered not diagnostic, borderline, or positive for NASH. Scores of 5-8 occurred in cases that were largely considered diagnostic of NASH.
Statistical tests were performed using Bonferroni Multiple Comparison Test. P values<0.05 were considered statistically significant.

mouse endoglin = target: T2, mouse endoglin (Mus musculus, UniProt Q63961); test: Inhibition of mouse BMP binding to mouse endoglin (statement, no method); conditions: statement in description
T2 sequence (Q63961 27-653): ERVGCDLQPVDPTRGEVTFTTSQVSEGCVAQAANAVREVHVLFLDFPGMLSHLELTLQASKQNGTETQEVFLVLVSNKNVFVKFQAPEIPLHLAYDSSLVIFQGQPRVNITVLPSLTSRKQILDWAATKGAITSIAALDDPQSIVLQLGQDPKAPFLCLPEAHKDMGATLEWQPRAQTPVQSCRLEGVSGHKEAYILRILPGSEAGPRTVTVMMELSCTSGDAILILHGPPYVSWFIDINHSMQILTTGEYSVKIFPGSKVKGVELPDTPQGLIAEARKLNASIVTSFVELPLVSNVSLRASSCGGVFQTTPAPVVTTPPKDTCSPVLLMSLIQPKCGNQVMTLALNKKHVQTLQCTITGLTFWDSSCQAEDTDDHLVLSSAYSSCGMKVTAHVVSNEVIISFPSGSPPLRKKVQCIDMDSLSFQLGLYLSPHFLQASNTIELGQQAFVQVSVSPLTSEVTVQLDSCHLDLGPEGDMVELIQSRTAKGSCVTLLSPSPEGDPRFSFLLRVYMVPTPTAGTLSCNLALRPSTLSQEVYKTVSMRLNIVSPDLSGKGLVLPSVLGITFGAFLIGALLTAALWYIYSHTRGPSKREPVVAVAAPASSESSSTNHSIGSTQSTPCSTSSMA

human endoglin = target: T3, human endoglin (Homo sapiens, UniProt P17813); conditions: statement in description; cited from earlier work
T3 sequence (P17813 26-658): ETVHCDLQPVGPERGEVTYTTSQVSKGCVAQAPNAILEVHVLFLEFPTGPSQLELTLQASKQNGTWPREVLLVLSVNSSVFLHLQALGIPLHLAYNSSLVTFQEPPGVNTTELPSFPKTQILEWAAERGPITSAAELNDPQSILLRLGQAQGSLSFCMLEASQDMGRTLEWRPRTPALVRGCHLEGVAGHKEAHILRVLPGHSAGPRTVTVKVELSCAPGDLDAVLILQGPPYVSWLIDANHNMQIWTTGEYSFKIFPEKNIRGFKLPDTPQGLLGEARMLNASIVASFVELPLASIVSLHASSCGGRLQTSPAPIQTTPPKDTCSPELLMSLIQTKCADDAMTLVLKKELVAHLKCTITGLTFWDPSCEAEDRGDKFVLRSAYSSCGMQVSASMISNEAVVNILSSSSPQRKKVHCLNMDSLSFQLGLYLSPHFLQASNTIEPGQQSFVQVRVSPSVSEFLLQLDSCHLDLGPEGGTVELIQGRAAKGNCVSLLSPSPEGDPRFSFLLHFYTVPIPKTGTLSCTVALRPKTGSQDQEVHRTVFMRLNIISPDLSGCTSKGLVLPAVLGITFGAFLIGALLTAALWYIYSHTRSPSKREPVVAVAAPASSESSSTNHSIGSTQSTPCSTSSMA

[2] = liver gene expression, mean ± SD, Normal-Vehicle 1.0

BMP9: human BMP9 (R&D Systems Cat. No. 3209-BP-010), endoglin ligand [reference compound]
IC50 of competition with biotinylated TRC205 antibody (human CD105): 0.35 µg/mL

TRC105: human murine chimeric IgG1 monoclonal antibody that binds endoglin; VL/VH SEQ ID NOS. 1 and 39
Ashcroft score, comparison between groups [1]: significantly lower | Liver triglyceride contents compared with the NASH-Vehicle group (NASH mice; Bonferroni, P<0.05): tended to decrease | NAS compared with the NASH-Vehicle group (NASH mice; Bonferroni, P<0.05): tended to decrease in NAS | Serum alanine aminotransferase (ALT) levels compared with the NASH-Vehicle group (NASH mice; Bonferroni, P<0.05): no significant difference | Serum alkaline phosphatase (ALP) levels compared with the NASH-Vehicle group (NASH mice; Bonferroni, P<0.05): tended to decrease | Tissue inhibitor of metalloproteinase-1 mRNA expression levels compared with the NASH-Vehicle group (NASH mice; Bonferroni, P<0.05): significantly up-regulated | Tumor necrosis factor-alpha mRNA expression levels compared with the NASH-Vehicle group (NASH mice; Bonferroni, P<0.05): significantly up-regulated | F4/80-positive signals and cells in liver compared with the NASH-Vehicle group (NASH mice; F4/80 immunostaining, macrophage marker): Lower F4/80-positive signals and positive cells | Alpha-SMA mRNA expression (NASH mice; [2]): 1.7 ± 0.7 | MCP-1 mRNA expression (NASH mice; [2]): 5.7 ± 4.2 | TIMP-1 mRNA expression (NASH mice; [2]): 25.4 ± 23.0 | TNF-α mRNA expression (NASH mice; [2]): 12.9 ± 9.5 | Liver triglyceride (NASH mice; mean ± SD): 31.1 ± 20.3 mg/g liver | Serum ALP (NASH mice; mean ± SD): 291 ± 119 U/L | Serum ALT (NASH mice; mean ± SD): 62 ± 57 U/L | Serum AST (NASH mice; mean ± SD): 204 ± 205 U/L | Sirius red-positive area (NASH mice; mean ± SD, liver sections): 0.92 ± 0.20% | NAS (NAFLD Activity score) (NASH mice; mean ± SD, range 0-8, 10 mg/kg): 4.4 ± 1.4 | Steatosis score 0, number of mice (NASH mice; score 0 = <5%, 12 weeks of age): 1 | Hepatocyte ballooning score 0, number of mice (NASH mice; score 0 = None): 3 | Steatosis score 1, number of mice (NASH mice; score 1 = 5-33%): 6 | Lobular inflammation score 1, number of mice (NASH mice; score 1 = <2 foci/200x): 1 | Lobular inflammation score 2, number of mice (NASH mice; score 2 = 2-4 foci/200x): 5 | Steatosis score 2, number of mice (NASH mice; score 2 = >33-66%): 1 | Hepatocyte ballooning score 2, number of mice (NASH mice; score 2 = Many cells/prominent ballooning): 5 | Lobular inflammation score 3, number of mice (NASH mice; score 3 = >4 foci/200x): 2 | Effect on mouse BMP binding to mouse endoglin (mouse endoglin): dose not prevent the binding of mouse BMP to mouse endoglin | Effect on human BMP binding to human endoglin (human endoglin): competitively inhibits human BMP binding
